Laboratory results reported in patent US5534416A, “Fluorescent viability assay using cyclic-substituted unsymmetrical cyanine dyes” (Molecular Probes, Inc., priority 1993, dated 1996).
Where two headings read alike, the source gives them in different places.

Key:
B. cereus = assay: Fluorescence per cell, stained bacteria (microtiter plate reader); format: cell-based, Bacillus cereus; details: optimal dye concentration, corrected for cell number
Method: (§1) 1. Measured in a fluorescence microtiter plate reader with extraction and
(§2) emission filters at 485+/-10 and 530+/-12, respectively. Fluorescence dat
(§3) are corrected for cell number; but are not corrected for cell volume or
(§4) 2. Optimal dye concentrations determined as in Example 3.
(§5) 3. Suspension concentrations as used for Example 3.
(§6) A culture of E. coli is washed by centrifugation and resuspended in water to its original volume. Using Corning 96-well microtiter plates with flat bottoms, 150 μL volumes of suspension are loaded per well. A single well of sterile water is the well background standard. Using a Dynatech MR600 microplate reader equipped with a 410 nm filter, absorbance is determined for the initial volumes of suspension. The suspension is diluted seven times by serial ten-fold dilutions in water, 150 μL of suspension per well, and the absorbance measured for each dilution. Following the absorbance measurements, each dilution loaded into wells is further diluted 1:10 and plated in duplicate on nutrient growth agar. The colonies are counted and expressed as colony forming units per milliliter (cfu/mL). Using the turbidity of the dilution in the microtiter plate, the suspension is diluted to a density of about 1×10^9 cfu/mL.
(§7) The bacteria suspension, adjusted to a known density as described above, is diluted seven times by serial ten-fold dilutions in water; 150 μL of suspension per well. Three-fold serial dilutions of dye are used (30-0.04 μM); 50 μL of dye at 4× final concentration. Using Corning 96-well microtiter flat-bottom plates, a matrix is set up whereby the cell concentration decreases across the plate and the dye concentration decreases down the plate, final volume per well is 200 μL. The top row and first column are reserved for the control, sterile water. The plate is incubated at 37° C. for 30 minutes, then read in a Millipore Cytofluor™ 2350 96-well fluorescence microplate reader at a fixed excitation of 485+/-10 nm and each of three emission wavelengths, 530+/-12, 620+/-20, or 645+/-20 nm. The results determine the best dye range (30-1 μM) and the best cell concentrations (concentrated through first three ten-fold dilutions) for optimal dye loading. […] Using the four dye dilutions and the four bacterial dilutions, many bacteria and dyes can be assayed quickly. The data collected allow the determination of optimal dye and cell concentration required for maximal fluorescence intensity per cell.

M. luteus = assay: as above; format: cell-based, Micrococcus luteus; details: optimal dye concentration, corrected for cell number
Method: as §1, §2, §3, §4, §5, §6, §7

S. pyogenes = assay: as above; format: cell-based, Streptococcus pyogenes; details: optimal dye concentration, corrected for cell number
Method: as §1, §2, §3, §4, §5, §6, §7

S. aureus = assay: as above; format: cell-based, Staphylococcus aureus; details: for Fluorescence/Cell (ex 485/em 530): S. aureus, optimal dye concentration, corrected for cell number; for Normalized Fluorescence/cell (ex 485 nm/em 530 nm), Staphylococcus aureus: scaled to thiazole orange
Excerpt: as §1, §2, §3, §4, §5
(§8) Factors such as degree of fluorescence enhancement with nucleic acid binding, self quenching, molar extinction coefficient, membrane permeability, intracellular partitioning, nucleic acid binding affinity, and quantum yield contribute to the overall fluorescence of nucleic acid stains in cells. Enhanced cell fluorescence obtained with Dye I is related to unexpected properties other than quantum yield alone. Quantum yield is determined as described above (foot note to Table 2). Normalized quantum yield is determined to illustrate the fold-change in quantum yield of Dye I compared with thiazole orange, a related cell-permeant dye. The normalized fluorescence values represent the quantum yield of each dye divided by the quantum yield of thiazole orange. Fluorescence per cell is also scaled to thiazole orange values for both E. coli and S. aureus to allow direct comparison between relative (normalized) quantum yield and relative (normalized) fluorescence/cell.
as §6, §7

E. coli = assay: as above; format: cell-based, Escherichia coli; details: for Fluorescence/Cell (ex 485/em 530): E. coli, optimal dye concentration, corrected for cell number; for Normalized Fluorescence/cell (ex 485 nm/em 530 nm), Escherichia coli: scaled to thiazole orange
Excerpt: as §1, §2, §3, §4, §5, §8, §6, §7

S. oranienburg = assay: as above; format: cell-based, Salmonella oranienburg; details: optimal dye concentration, corrected for cell number
Method: as §1, §2, §3, §4, §5, §6, §7

K. pneumonia = assay: as above; format: cell-based, Klebsiella pneumonia; details: optimal dye concentration, corrected for cell number
Method: as §1, §2, §3, §4, §5, §6, §7

S. sonnei = assay: as above; format: cell-based, Shigella sonnei; details: optimal dye concentration, corrected for cell number
Method: as §1, §2, §3, §4, §5, §6, §7

P. aeruginosa = assay: as above; format: cell-based, Pseudomonas aeruginosa; details: optimal dye concentration, corrected for cell number
Method: as §1, §2, §3, §4, §5, §6, §7

nucleic acids = assay: Excitation/emission maxima of dyes complexed with nucleic acids; format: physicochemical; parameters: key: wavelength in nm; details: Table 2; dye complexed with nucleic acids
Excerpt: Dye I is lightly colored and is virtually non-fluorescent when diluted in aqueous solution according to the method of the invention. Dye I is highly membrane-permeant and labels all cells, whether live or dead. When Dye I binds with intracellular nucleic acid polymers such as DNA and RNA, the resultant dye-nucleic acid complex becomes extremely fluorescent upon illumination. The quantum yield of the preferred Dye I/DNA complex is greater than 0.02, typically greater than 0.1, preferably greater than 0.2, and more preferably greater than 0.3. Typically, Dye I combines with intracellular nucleic acids to give a green or red fluorescence. When excited at a wavelength between about 300 nm and about 500 nm, the dyes complexed with nucleic acids have an emission maximum between about 500 and about 610 nm (see Table 2). Preferably, Dye I complexed with nucleic acids has an emission maximum of between about 500 nm and about 535 nm, resulting in a true green fluorescent signal in cells of the sample where Dye I is present alone.

DNA = assay: Quantum yield of dye on DNA versus fluorescein; format: physicochemical; details: for Normalized QY: QY divided by QY of thiazole orange; for QY (DNA): Table 2, Tris buffered saline pH 10, fluorescein assumed 0.92; for QY: Table 7, on DNA, fluorescein reference
Excerpt: ^ Quantum yield (QY) of dye on DNA (standard solution in Tris buffere
saline adjusted to pH 10) in comparison with fluorescein, which is assume
to have a quantum yield of 0.92 under the test conditions.
as §8

intact cells = details: cited from earlier work; for Loading / Retention / pH sensitivity: in words
calf thymus DNA = details: Table 5; bound to excess calf thymus DNA (50 bp/dye); cited from earlier work
[1] = "probably", temperature not stated

Compound	Fluorescence/Cell (ex 485/em 530) (B. cereus)	Fluorescence/Cell (ex 485/em 530) (M. luteus)	Fluorescence/Cell (ex 485/em 530) (S. pyogenes)	Fluorescence/Cell (ex 485/em 530) (S. aureus)	Normalized Fluorescence/cell (ex 485 nm/em 530 nm), Staphylococcus aureus (S. aureus)	Fluorescence/Cell (ex 485/em 530) (E. coli)	Normalized Fluorescence/cell (ex 485 nm/em 530 nm), Escherichia coli (E. coli)	Fluorescence/Cell (ex 485/em 530) (S. oranienburg)	Fluorescence/Cell (ex 485/em 530) (K. pneumonia)	Fluorescence/Cell (ex 485/em 530) (S. sonnei)	Fluorescence/Cell (ex 485/em 530) (P. aeruginosa)	EM max (nucleic acids)	EX max (nucleic acids)	Normalized QY (DNA)	QY (DNA) (DNA)	QY (DNA)	other results
CCN(CC)C1=CC(=Cc2sc3ccccc3[n+]2C)c2ccccc2N1c1ccccc1 [compound 619]	827	149	0.06	47	14.7	26	13	18	12	13	16	517	488	3.4	0.62	0.62	–
CC(=O)Oc1ccc2c(c1)Oc1cc(OC(C)=O)ccc1C21OC(=O)c2ccccc21 [Fluorescein diacetate]	–	–	–	–	–	–	–	–	–	–	–	–	–	–	–	–	T1/2 (time for half of dye to leak from intact cells) (intact cells; 37° C.): < 10 min; Loading (intact cells): Easily loaded; Retention (intact cells): poorly retained
Carboxycalcein Blue AM	–	–	–	–	–	–	–	–	–	–	–	–	–	–	–	–	T1/2 (time for half of dye to leak from intact cells) (intact cells; [1]): < 60 min; Loading (intact cells): Easily loaded
Carboxynaphtho-fluorescein diacetate	–	–	–	–	–	–	–	–	–	–	–	–	–	–	–	–	pH sensitivity (intact cells): sensitive
Sulfofluorescein diacetate	–	–	–	–	–	–	–	–	–	–	–	–	–	–	–	–	Loading (intact cells): More difficult; Retention (intact cells): better
CC(=O)OCOC(=O)CN(CC(=O)OCOC(C)=O)Cc1c(O)ccc2c(C)cc(=O)oc12 [Calcein Blue AM]	–	–	–	–	–	–	–	–	–	–	–	–	–	–	–	–	T1/2 (time for half of dye to leak from intact cells) (intact cells; [1]): < 15 min; Loading (intact cells): Easily loaded
C[n+]1c(C=C2C=C(Cl)N(c3ccccc3)c3ccccc32)sc2ccccc21 [compound 591]	58	375	< 0.01	3	0.9	2	1	2	2	1	1	532	509	0.5	0.09	0.09	–
5-(and-6)-Carboxy-2',7'-dichloro-fluorescein diacetate	–	–	–	–	–	–	–	–	–	–	–	–	–	–	–	–	pH sensitivity (intact cells): Lower pH-
CCCCCCN1C=CC(=Cc2sc3ccccc3[n+]2C)c2ccccc21 [compound 634]	154	58	0.03	15	4.7	4	2	5	4	4	3	530	510	1.0	0.18	0.18	–
CCCCC1=CC(=Cc2oc3ccccc3[n+]2C)c2ccccc2N1c1ccccc1 [compound 624]	709	162	0.05	44	13.8	24	12	15	17	11	14	501	480	3.2	0.58	0.58	–
O=C(O)c1ccccc1C1c2cc(Cl)c(O)cc2Oc2cc(O)c(Cl)cc21 [H2 DCF]	–	–	–	–	–	–	–	–	–	–	–	–	–	–	–	–	Retention (intact cells): poor retention; pH sensitivity (intact cells): pH-insensitive
Carboxyfluorescein diacetate	–	–	–	–	–	–	–	–	–	–	–	–	–	–	–	–	T1/2 (time for half of dye to leak from intact cells) (intact cells; 37° C.): < 30 min; Retention (intact cells): Moderate; pH sensitivity (intact cells): sensitive
C[n+]1c(C=C2C=CN(c3ccccc3)c3ccccc32)sc2ccccc21 [dye 63]	93	33	0.01	5	1.6	6	3	4	5	3	3	531	514	1.3	0.24	0.24	–
CC(=O)OCOC(=O)c1ccc2c(c1)C(=O)OC21c2ccc(OC(C)=O)cc2Oc2cc(OC(C)=O)ccc21 [5-Carboxyfluorescein diacetate AM]	–	–	–	–	–	–	–	–	–	–	–	–	–	–	–	–	T1/2 (time for half of dye to leak from intact cells) (intact cells; 37° C.): < 30 min; Loading (intact cells): readily loaded; Retention (intact cells): Moderate
C[n+]1c(C=CC=C2C=CN(CCC[N+](C)(C)CCC[N+](C)(C)CCCN3C=CC(=CC=Cc4sc5ccccc5[n+]4C)c4ccccc43)c3ccccc32)sc2ccccc21 [TOTO-3]	–	–	–	–	–	–	–	–	–	–	–	–	–	–	–	–	EM max (calf thymus DNA): 660 nm; EX max (calf thymus DNA): 642 nm
C[n+]1c(C=CC=C2C=CN(CCC[N+](C)(C)C)C=C2)oc2ccccc21 [PO-PRO-3]	–	–	–	–	–	–	–	–	–	–	–	–	–	–	–	–	EM max (calf thymus DNA): 567 nm; EX max (calf thymus DNA): 539 nm
COC1=CC(=Cc2sc3ccccc3[n+]2C)c2ccccc2N1c1ccccc1 [compound 628]	613	149	0.04	34	10.6	28	14	19	20	16	14	506	488	2.2	0.40	0.40	–
